Consider seven compounds from ChEMBL document CHEMBL1955734, “JFCR39, a panel of 39 human cancer cell lines, and its application in the discovery and development of anticancer drugs” (Bioorg Med Chem, 2012).

The target in test [1] is Telomerase reverse transcriptase (Homo sapiens, UniProt O14746). The test can be described thus: Inhibition of telomerase.
Test [2] concerns NCI-H23. The test can be described thus: Growth inhibition of human NCI-H23 cells. The test is classed as functional, cell-based.
For test [3], the system named is MKN-74. In words: Growth inhibition of human MKN74 cells. Type of test: functional, cell-based.
The test system of test [4] is SF-268. The test can be described thus: Growth inhibition of human SF268 cells. The test is classed as functional, cell-based.
Test [5] in a line: Growth inhibition of human RXF631L cells. Type of test: functional. The following applies: RXF 631.
The nature of test [6]: Growth inhibition of human MKN1 cells. Type of test: functional, cell-based. To be noted: MKN-1.
Test [7] relates to HCT-116. The test can be described thus: Growth inhibition of human HCT116 cells. The test is classed as functional, cell-based.
The subject of test [8] is ACHN. In words: Growth inhibition of human ACHN cells. The test is classed as functional, cell-based.
Test [9] deals with SNB-78. The test can be described thus: Growth inhibition of human SNB78 cells. Type of test: functional, cell-based.
Test [10] relates to DMS-114. The test can be described thus: Growth inhibition of human DMS114 cells. Type of test: functional, cell-based.
For test [11], the system named is PC-3. The test can be described thus: Growth inhibition of human PC3 cells. The test is classed as functional, cell-based.
Test [12] deals with A549. The test can be described thus: Growth inhibition of human A549 cells. Type of test: functional, cell-based.
In test [13] the test system is OVCAR-8. The test can be described thus: Growth inhibition of human OVCAR8 cells. Type of test: functional, cell-based.
A short description of test [14]: Growth inhibition of human HBC5 cells. The test is classed as functional, cell-based.
In test [15] the test system is SNB-75. The test can be described thus: Growth inhibition of human SNB75 cells. The test is classed as functional, cell-based.
Test [16] deals with MCF7. In words: Growth inhibition of human MCF7 cells. The test is classed as functional, cell-based.
Test [17] relates to HT-29. The test can be described thus: Growth inhibition of human HT-29 cells. Type of test: functional, cell-based.
For test [18], the system named is SF-539. In words: Growth inhibition of human SF539 cells. The test is classed as functional, cell-based.
Test [19] deals with St-4. The test can be described thus: Growth inhibition of human St-4 cells. Type of test: functional, cell-based.
The test system of test [20] is OVCAR-5. The test can be described thus: Growth inhibition of human OVCAR5 cells. Type of test: functional, cell-based.
The test system of test [21] is DU-145. The test can be described thus: Growth inhibition of human DU145 cells. Type of test: functional, cell-based.
Test [22] concerns SF-295. The test can be described thus: Growth inhibition of human SF295 cells. The test is classed as functional, cell-based.
Test [23] has as its system NCI-H522. In words: Growth inhibition of human NCI-H522 cells. The test is classed as functional, cell-based.
Test [24] is described as follows: Growth inhibition of human NCI-H483 cells. The test is classed as functional, cell-based.
Test [25] relates to MKN-45. The test can be described thus: Growth inhibition of human MKN45 cells. Type of test: functional, cell-based.
In test [26] the test system is LOX IMVI. In words: Growth inhibition of human LOXIMVI cells. Type of test: functional, cell-based.
A short description of test [27]: Growth inhibition of human HBC4 cells. Type of test: functional, cell-based.
Test [28] has as its system OVCAR-3. In words: Growth inhibition of human OVCAR3 cells. The test is classed as functional, cell-based.
Test [29] in a line: Growth inhibition of human BSY1 cells. The test is classed as functional, cell-based. The following applies: BSY-1.
Test [30] deals with HCC 2998. In words: Growth inhibition of human HCC2998 cells. The test is classed as functional, cell-based.
Test [31] deals with SK-OV-3. The test can be described thus: Growth inhibition of human SKOV3 cells. The test is classed as functional, cell-based.
In test [32] the test system is MDA-MB-231. In words: Growth inhibition of human MDA-MB-231 cells. Type of test: functional, cell-based.
Test [33] relates to NCI-H226. The test can be described thus: Growth inhibition of human NCI-H226 cells. Type of test: functional, cell-based.
In test [34] the test system is HCT-15. In words: Growth inhibition of human HCT15 cells. The test is classed as functional, cell-based.
Test [35] deals with KM12. In words: Growth inhibition of human KM12 cells. The test is classed as functional, cell-based.
The test system of test [36] is MKN-7. The test can be described thus: Growth inhibition of human MKN7 cells. Type of test: functional, cell-based.
In test [37] the test system is MKN-28. The test can be described thus: Growth inhibition of human MKN28 cells. The test is classed as functional, cell-based.
The test system of test [38] is U-251. In words: Growth inhibition of human U251 cells. Type of test: functional, cell-based.
The test system of test [39] is DMS-273. The test can be described thus: Growth inhibition of human DMS273 cells. Type of test: functional, cell-based.
Test [40] has as its system OVCAR-4. In words: Growth inhibition of human OVCAR4 cells. Type of test: functional, cell-based.

Usually IC50 stands for the concentration at which inhibition is half-maximal. Low readings indicate inhibition by little substance, high ones a need for much substance. As a reminder, the GI50 is the concentration that inhibits growth by half. A higher GI50 goes with less potent growth inhibition.

Sequence of Telomerase reverse transcriptase (O14746 whole entry): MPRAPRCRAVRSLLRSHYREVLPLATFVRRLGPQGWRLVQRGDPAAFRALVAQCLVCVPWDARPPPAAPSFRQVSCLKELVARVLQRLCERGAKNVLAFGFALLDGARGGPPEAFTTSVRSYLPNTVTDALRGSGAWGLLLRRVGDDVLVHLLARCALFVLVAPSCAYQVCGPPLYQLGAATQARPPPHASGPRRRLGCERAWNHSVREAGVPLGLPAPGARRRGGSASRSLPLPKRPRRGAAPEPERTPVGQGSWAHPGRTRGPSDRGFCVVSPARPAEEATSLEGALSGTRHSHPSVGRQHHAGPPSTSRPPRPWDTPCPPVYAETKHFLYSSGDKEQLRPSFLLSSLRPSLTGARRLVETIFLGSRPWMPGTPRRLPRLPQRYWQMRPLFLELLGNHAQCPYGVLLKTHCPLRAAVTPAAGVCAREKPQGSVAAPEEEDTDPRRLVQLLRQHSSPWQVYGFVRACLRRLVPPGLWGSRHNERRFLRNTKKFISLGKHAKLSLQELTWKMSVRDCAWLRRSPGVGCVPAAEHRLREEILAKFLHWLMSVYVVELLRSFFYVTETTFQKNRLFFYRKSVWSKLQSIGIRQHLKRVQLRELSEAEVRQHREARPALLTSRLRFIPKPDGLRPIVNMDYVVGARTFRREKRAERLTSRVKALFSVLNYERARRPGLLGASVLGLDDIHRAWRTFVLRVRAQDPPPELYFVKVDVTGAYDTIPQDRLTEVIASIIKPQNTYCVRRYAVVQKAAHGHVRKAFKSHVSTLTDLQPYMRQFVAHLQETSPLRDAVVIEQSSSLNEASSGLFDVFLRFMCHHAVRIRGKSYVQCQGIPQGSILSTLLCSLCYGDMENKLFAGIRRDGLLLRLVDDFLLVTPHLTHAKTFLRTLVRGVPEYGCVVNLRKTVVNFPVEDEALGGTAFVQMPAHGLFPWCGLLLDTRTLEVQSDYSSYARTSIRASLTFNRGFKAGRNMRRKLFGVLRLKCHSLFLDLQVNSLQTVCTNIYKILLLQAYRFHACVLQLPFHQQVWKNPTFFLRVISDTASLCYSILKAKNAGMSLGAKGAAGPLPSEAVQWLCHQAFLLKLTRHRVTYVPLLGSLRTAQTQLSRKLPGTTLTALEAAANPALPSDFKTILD

`CCn1c(=O)/c(=C2\Sc3ccccc3N2C)s/c1=C\c1scc(C)[n+]1CC`: the IC50 in test [1] is 2000 nM.
For the compound `Cn1cc(NC(=O)CC[S+](C)C)cc1-c1nc2cc(C(=O)Nc3ccc(N(CCCl)CCCl)cc3)ccc2[nH]1`, the half-inhibitory concentration (IC50) in [2], in test [3], in test [4], in test [5], in test [6] and in [7] was 710 nM in each case. Besides, the IC50 in test [8], in test [9], in [10], in test [11], in test [12] and in [13] was 710 nM in each case. Also, the IC50 in [14], in test [15], in [16], in test [17], in test [18] and in [19] was 710 nM each time. Further, the half-inhibitory concentration (IC50) in test [20], in [21], in test [22], in [23], in test [24] and in test [25] was 710 nM in each case. The IC50 in test [26], in test [27], in test [28], in [29], in test [30] and in [31] was 710 nM throughout. Moreover, the IC50 in [32], in test [33], in test [34], in test [35], in [36] and in [37] was 710 nM in each case. The IC50 in test [38], in test [39] and in test [40] was 710 nM throughout.
`CCn1c(=O)/c(=C2\Sc3ccccc3N2C)s/c1=C\c1cccc[n+]1CC` had an IC50 in [1] of 5000 nM.
Still for that read-out and setting: the result for `COc1ccc2cc3[n+](cc2c1OC)CCc1cc2c(cc1-3)OCO2` [BERBERINE] reads 37000 nM.
Turning to `Cn1c(=O)n(-c2ccc(C(C)(C)C#N)cc2)c2c3cc(-c4cnc5ccccc5c4)ccc3ncc21` [DACTOLISIB], the GI50 in test [2] was 22.9 nM; in test [3], 38 nM; in test [4], 12 nM; in [5] it was 6.17 nM; in test [6], 3.89 nM; in [7], 24.6 nM. Moreover, the GI50 in test [8] is 11.2 nM; in test [9] it was 2.24 nM; in [10] it was 4.07 nM; in test [11], 2.19 nM; in test [12], 8.51 nM; in [13], 14.4 nM. The 50% growth inhibitory concentration (GI50) in test [14] is 13.5 nM; in test [15], 2.63 nM; in [16], 6.92 nM; in test [17], 17.8 nM; in [18], 2.57 nM; in [19], 33.9 nM. Further, the GI50 in [20] is 26.9 nM; in test [21], 6.92 nM; in test [22] it was 4.9 nM; in test [23], 3.55 nM; in test [24], 7.76 nM; in test [25], 4.57 nM. For the same compound, the 50% growth inhibitory concentration (GI50) is 2.19 nM in [26]; 2.46 nM in test [27]; 6.76 nM in [28]; 3.31 nM in test [29]; 8.91 nM in test [30]; 3.89 nM in test [31]. The GI50 in test [32] was 8.13 nM; in test [33], 3.63 nM; in test [34], 9.33 nM; in test [35], 28.8 nM; in [36], 20.9 nM; in test [37], 85.1 nM. Also, the concentration for 50% growth inhibition (GI50) was 21.9 nM in test [38], 15.8 nM in test [39] and 2.63 nM in [40].
Take `CS(=O)(=O)N1CCN(Cc2cc3nc(-c4cccc5[nH]ncc45)nc(N4CCOCC4)c3s2)CC1` [PICTILISIB]: the 50% growth inhibitory concentration (GI50) in [2] was 1860 nM; in test [3], 955 nM; in [4], 4070 nM; in test [5] it was 132 nM; in test [6] it was 83.2 nM; in test [7] it was 1350 nM. Moreover, the GI50 in test [8] is 851 nM; in test [9] it was 302 nM; in test [10], 1200 nM; in [11], 219 nM; in test [12], 708 nM; in test [13], 1860 nM. Further, the GI50 is 251 nM in test [14]; 79.4 nM in [15]; 46.8 nM in [16]; 501 nM in [17]; 316 nM in test [18]; 2750 nM in [19]. Moreover, the GI50 is 550 nM in test [20]; 1410 nM in test [21]; 427 nM in test [22]; 263 nM in [23]; 275 nM in test [24]; 282 nM in [25]. Besides, the concentration for 50% growth inhibition (GI50) is 513 nM in [26]; 933 nM in [27]; 195 nM in test [28]; 126 nM in test [29]; 513 nM in test [30]; 302 nM in test [31]. For the same compound, the GI50 in test [32] is 3470 nM; in test [33], 617 nM; in [34], 759 nM; in [35], 1740 nM; in [36], 316 nM; in test [37] it was 3020 nM. The GI50 in test [38] was 3160 nM; in test [39] it was 372 nM; in test [40] it was 1740 nM.
With `FC(F)c1nc2ccccc2n1-c1nc(N2CCOCC2)nc(N2CCOCC2)n1` [ZSTK-474], the concentration for 50% growth inhibition (GI50) in [2] was 1050 nM; in test [3] it was 1020 nM; in test [4], 1480 nM; in [5], 316 nM; in test [6], 245 nM; in test [7], 1380 nM. The GI50 was 603 nM in test [8]; 355 nM in test [9]; 479 nM in test [10]; 145 nM in test [11]; 676 nM in test [12]; 1260 nM in test [13]. Further, the GI50 in [14] was 170 nM; in [15] it was 155 nM; in test [16], 182 nM; in test [17] it was 646 nM; in [18], 479 nM; in test [19], 1910 nM. The 50% growth inhibitory concentration (GI50) in [20] is 1200 nM; in [21], 724 nM; in test [22], 347 nM; in test [23], 263 nM; in test [24], 372 nM; in [25], 245 nM. Also, the GI50 in [26] was 288 nM; in test [27] it was 912 nM; in [28] it was 389 nM; in test [29], 275 nM; in test [30] it was 851 nM; in test [31], 398 nM. Further, the concentration for 50% growth inhibition (GI50) is 813 nM in test [32]; 407 nM in test [33]; 525 nM in test [34]; 2240 nM in test [35]; 575 nM in test [36]; 1950 nM in test [37]. The concentration for 50% growth inhibition (GI50) in [38] is 1820 nM; in [39], 339 nM; in [40] it was 1620 nM.
